Experimental data: ChEMBL document CHEMBL1821577, “Discovery of GSK1997132B a novel centrally penetrant benzimidazole PPARγ partial agonist” (Bioorg Med Chem Lett, 2011)

Experiments:
[1] = molecular target: T1, Peroxisome proliferator-activated receptor gamma (Homo sapiens, UniProt P37231); experiment: Partial agonist activity at human PPARgamma by luciferase reporter gene assay; format: functional
T1 sequence (P37231 whole entry): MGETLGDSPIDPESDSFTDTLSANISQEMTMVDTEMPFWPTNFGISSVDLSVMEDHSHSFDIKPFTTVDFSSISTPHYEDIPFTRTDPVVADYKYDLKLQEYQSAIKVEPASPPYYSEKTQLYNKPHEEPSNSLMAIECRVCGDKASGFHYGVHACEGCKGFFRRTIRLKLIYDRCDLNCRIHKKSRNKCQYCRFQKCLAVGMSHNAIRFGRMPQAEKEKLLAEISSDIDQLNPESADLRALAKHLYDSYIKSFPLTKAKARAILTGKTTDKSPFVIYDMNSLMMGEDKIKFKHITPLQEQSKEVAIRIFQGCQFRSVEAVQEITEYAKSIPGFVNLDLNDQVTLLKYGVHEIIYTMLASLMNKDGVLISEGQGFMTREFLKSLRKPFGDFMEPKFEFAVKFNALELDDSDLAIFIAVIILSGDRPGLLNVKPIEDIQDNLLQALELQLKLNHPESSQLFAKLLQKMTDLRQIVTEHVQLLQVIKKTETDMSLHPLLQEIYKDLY

[2] = molecular target: T2, Peroxisome proliferator-activated receptor gamma (Homo sapiens) (UniProt P37231); experiment: Activity at human PPARgamma by luciferase reporter gene assay; set-up: concentration or dose not given beside the values
T2 sequence (whole entry): T1 sequence (P37231 whole entry)

[3] = molecular target: T3, Peroxisome proliferator-activated receptor alpha (Homo sapiens, UniProt Q07869); experiment: Partial agonist activity at PPARalpha by luciferase reporter gene assay; format: functional
T3 sequence (Q07869 whole entry): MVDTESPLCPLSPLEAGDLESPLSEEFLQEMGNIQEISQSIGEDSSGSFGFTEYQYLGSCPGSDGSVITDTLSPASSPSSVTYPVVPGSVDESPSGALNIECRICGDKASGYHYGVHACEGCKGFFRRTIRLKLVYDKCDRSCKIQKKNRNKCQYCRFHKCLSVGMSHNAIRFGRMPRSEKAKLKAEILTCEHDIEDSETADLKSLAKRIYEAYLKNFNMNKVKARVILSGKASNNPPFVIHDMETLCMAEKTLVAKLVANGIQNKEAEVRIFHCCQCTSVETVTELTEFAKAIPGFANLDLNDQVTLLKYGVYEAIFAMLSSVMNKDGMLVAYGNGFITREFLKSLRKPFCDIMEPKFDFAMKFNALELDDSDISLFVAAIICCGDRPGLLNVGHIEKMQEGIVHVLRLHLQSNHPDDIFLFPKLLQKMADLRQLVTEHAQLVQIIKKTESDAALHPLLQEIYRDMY

[4] = test system: Liver; experiment: Intrinsic clearance in mouse liver microsome; format: ADME; conditions: microsomes
[5] = test system: Liver microsomes; experiment: Intrinsic clearance in rat liver microsome; format: ADME
[6] = test system: Liver microsomes; experiment: Intrinsic clearance in human liver microsome; format: ADME
[7] = molecular target: T4, Peroxisome proliferator-activated receptor delta (Homo sapiens, UniProt Q03181); experiment: Partial agonist activity at PPARdelta by luciferase reporter gene assay; format: functional
T4 sequence (Q03181 whole entry): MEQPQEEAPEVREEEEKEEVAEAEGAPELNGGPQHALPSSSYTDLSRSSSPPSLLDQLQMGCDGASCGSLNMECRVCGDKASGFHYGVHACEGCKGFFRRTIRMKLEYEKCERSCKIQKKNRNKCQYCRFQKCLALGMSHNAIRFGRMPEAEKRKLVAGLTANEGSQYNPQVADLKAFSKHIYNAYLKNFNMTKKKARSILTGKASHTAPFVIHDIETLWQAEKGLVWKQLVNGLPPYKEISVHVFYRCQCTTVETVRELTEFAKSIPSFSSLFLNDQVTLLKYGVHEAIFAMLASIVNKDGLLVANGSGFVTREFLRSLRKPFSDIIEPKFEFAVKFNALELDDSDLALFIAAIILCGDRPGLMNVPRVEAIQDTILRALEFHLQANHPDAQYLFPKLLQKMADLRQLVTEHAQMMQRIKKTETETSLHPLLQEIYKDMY

[8] = test system: Mus musculus; experiment: Blood clearance in mouse at 1 mg/kg, iv; format: ADME, organism-based; set-up: dose 1 mg/kg, route intravenous; conditions: in vivo
[9] = test system: Brain; experiment: Drug uptake in rat brain at 3 mg/kg, po; format: ADME, organism-based; set-up: dose 3 mg/kg, route oral; conditions: in vivo, read-out: Drug uptake
[10] = Ratio of drug uptake in brain to blood in rat at 3 mg/kg, po; format: ADME, organism-based; set-up: dose 3 mg/kg, route oral
[11] = test system: Rattus norvegicus; experiment: Blood clearance in rat at 1 mg/kg, iv; format: ADME, organism-based; set-up: dose 1 mg/kg, route intravenous; conditions: in vivo
[12] = test system: Liver; experiment: Intrinsic clearance in rat liver S9 fraction; format: ADME, subcellular
[13] = test system: Brain; experiment: Drug uptake in rat brain at steady state at 2 mg/kg/h, iv; format: ADME, organism-based; set-up: route intravenous; conditions: in vivo, read-out: Drug uptake
[14] = Ratio of drug uptake in brain to blood at steady state in rat at 2 mg/kg/h, iv; format: ADME, organism-based; set-up: route intravenous
[15] = test system: Rattus norvegicus; experiment: Blood clearance at steady state in rat at 2 mg/kg/h, iv; format: ADME, organism-based; set-up: route intravenous; conditions: in vivo

Compound	EC50 [1] [nM]	Activity [2] [%]	further results
CC[C@@H](NC(=O)c1ccc2c(c1)nc(C(C)C)n2Cc1ccc(Cl)c(Cl)c1)c1ccccc1	398	42	
CC[C@@H](NC(=O)c1ccc2c(c1)ncn2Cc1ccccc1OC)c1ccccc1	5.01	75	
CCC(NC(=O)c1ccc2c(c1)nc(C)n2Cc1ccc(Cl)c(Cl)c1)c1ccccc1 (stereo not given)	50.1	64	EC50 [3]: > 10000 nM; CL [4]: 1.75 mL/min/g; CL [5]: 2.5 mL/min/g; CL [6]: 0.5 mL/min/g; EC50 [7]: > 10000 nM; clearance [8]: 736 mL/min/kg
CC[C@@H](NC(=O)c1ccc2c(c1)ncn2Cc1ccc(Cl)cc1F)c1ccccc1	0.794	74	
CC[C@@H](NC(=O)c1ccc2c(c1)ncn2Cc1ccc(Cl)cc1Cl)c1ccccc1	0.501	77	
Cc1nc2cc(C(=O)N[C@H](C)c3ccccc3)ccc2n1Cc1ccc(Cl)c(Cl)c1	50.1	77	concentration [9]: 12 nM; Kp [10]: 0.29; clearance [11]: 75 mL/min/kg; CL [5]: 1.4 mL/min/g; CL [6]: 0.5 mL/min/g; CL [12]: 8.3 mL/min/g
CC[C@@H](NC(=O)c1ccc2c(c1)ncn2Cc1ncc(Cl)cc1Cl)c1ccccc1	0.501	76	
CC[C@@H](NC(=O)c1ccc2c(c1)nc(C)n2Cc1ccc(Cl)c(Cl)c1)c1ccccc1	39.8	75	
CC[C@@H](NC(=O)c1ccc2c(c1)ncn2Cc1ccc(F)c(Cl)c1)c1ccccc1	6.31	85	
CCC(=O)c1nc2cc(C(=O)N[C@H](CC)c3ccccc3)ccc2n1Cc1ccc(Cl)c(Cl)c1	79.4	75	
CC[C@@H](NC(=O)c1ccc2c(c1)nc(C(F)(F)F)n2Cc1ccc(Cl)c(Cl)c1)c1ccccc1	251	60	
CC[C@@H](NC(=O)c1ccc2c(c1)ncn2Cc1ccncc1)c1ccccc1	794	63	
CC[C@@H](NC(=O)c1ccc2c(c1)nc(C)n2Cc1ccc(F)cc1)c1ccccc1	158	74	
CC[C@@H](NC(=O)c1ccc2c(c1)nc(C)n2Cc1ccc(Cl)cc1)c1ccccc1	31.6	66	
Cc1nc2cc(C(=O)N[C@@H](C)c3ccccc3)ccc2n1Cc1ccc(Cl)c(Cl)c1	631	50	
CC[C@@H](NC(=O)c1ccc2c(c1)ncn2Cc1ccccc1F)c1ccccc1	7.94	80	

Compound	EC50 [1] [nM]	Activity [2] [%]	further results
CC[C@@H](NC(=O)c1ccc2c(c1)ncn2Cc1ncccc1Cl)c1ccccc1	15.8	81	
CCc1nc2cc(C(=O)N[C@H](CC)c3ccccc3)ccc2n1Cc1ccc(Cl)c(Cl)c1	200	65	
CC[C@@H](NC(=O)c1ccc2c(c1)ncn2Cc1ccc(Cl)c(Cl)c1)c1ccccc1	2.51	71	CL [5]: 3.3 mL/min/g; concentration [13]: 655 nM; Kp [14]: 0.71; CL [6]: 0.6 mL/min/g; clearance [15]: 84 mL/min/kg; CL [12]: 10 mL/min/g
CC[C@@H](NC(=O)c1ccc2c(c1)nc(C)n2Cc1cccc(Cl)c1)c1ccccc1	79.4	76	
CC[C@@H](NC(=O)c1ccc2c(c1)ncn2Cc1ccc(F)cc1F)c1ccccc1	1.58	73	CL [5]: 3.7 mL/min/g; concentration [13]: 455 nM; Kp [14]: 0.59; CL [6]: 0.5 mL/min/g; clearance [15]: 107 mL/min/kg
CC[C@H](NC(=O)c1ccc2c(c1)nc(C)n2Cc1ccc(Cl)c(Cl)c1)c1ccccc1	251	21	
CC[C@@H](NC(=O)c1ccc2c(c1)ncn2Cc1ccccc1S(C)(=O)=O)c1ccccc1	398	73	
CC[C@@H](NC(=O)c1ccc2c(c1)ncn2Cc1ccc(Cl)cc1)c1ccccc1	3.16	74	
CC[C@@H](NC(=O)c1ccc2c(c1)ncn2Cc1ccc(Cl)cn1)c1ccccc1	39.8	80	
CC[C@@H](NC(=O)c1ccc2c(c1)nc(C)n2Cc1ccc(C(N)=O)cc1)c1ccccc1	10000	17	
CC[C@@H](NC(=O)c1ccc2c(c1)nc(C1CC1)n2Cc1ccc(Cl)c(Cl)c1)c1ccccc1	126	58	
CC[C@@H](NC(=O)c1ccc2c(c1)ncn2Cc1ccccn1)c1ccccc1	126	59	concentration [13]: 228 nM; Kp [14]: 0.2; clearance [15]: 78 mL/min/kg
CC[C@@H](NC(=O)c1ccc2c(c1)nc(C)n2Cc1ccccc1Cl)c1ccccc1	50.1	80	
Cc1nc2cc(C(=O)NCc3ccccc3)ccc2n1Cc1ccc(Cl)c(Cl)c1	398	83	
CC[C@@H](NC(=O)c1ccc2c(c1)ncn2Cc1cccnc1)c1ccccc1	501	74	
CC[C@@H](NC(=O)c1ccc2c(c1)nc(C)n2Cc1ccc(S(C)(=O)=O)cc1)c1ccccc1	5010	48	
